Source: PubChem BioAssay (NCI)
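Tested at 5 concentrations; 48 h exposure; 96-well plates; endpoints linearly interpolated, else capped at highest concentration. Here, GI50 denotes the concentration required for 50% inhibition of growth. TGI: total growth inhibition.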

Columns and labels:
Experiment in all cases: growth of human tumour cells (NCI), 48 h
SN12C renal = tested on: SN12C renal
T-47D breast = tested on: T-47D breast
ACHN renal = tested on: ACHN renal
BT-549 breast = tested on: BT-549 breast
SF-539 CNS = tested on: SF-539 CNS
HT29 colon = tested on: HT29 colon
UO-31 renal = tested on: UO-31 renal
HL-60(TB) leukemia = tested on: HL-60(TB) leukemia
UACC-62 melanoma = tested on: UACC-62 melanoma
NCI-H522 lung = tested on: NCI-H522 lung

O=C(Nc1ccccc1I(=O)=O)C1CCCCC1
GI50 (SN12C renal): > 100 µM
TGI (SN12C renal): > 100 µM
GI50 (T-47D breast): 58.5 µM
TGI (T-47D breast): > 100 µM
GI50 (ACHN renal): > 100 µM
TGI (ACHN renal): > 100 µM
GI50 (BT-549 breast): > 100 µM
TGI (BT-549 breast): > 100 µM
GI50 (SF-539 CNS): > 100 µM
TGI (SF-539 CNS): > 100 µM
GI50 (HT29 colon): > 100 µM
TGI (HT29 colon): > 100 µM
GI50 (UO-31 renal): > 100 µM
TGI (UO-31 renal): > 100 µM
GI50 (HL-60(TB) leukemia): 57.6 µM
TGI (HL-60(TB) leukemia): > 100 µM
GI50 (UACC-62 melanoma): > 100 µM
TGI (UACC-62 melanoma): > 100 µM
GI50 (NCI-H522 lung): > 100 µM
TGI (NCI-H522 lung): > 100 µM

CS(=O)(=O)Nc1cccc(-c2ccc3ncnc(Nc4ccc(F)c(Cl)c4)c3c2)c1
GI50 (SN12C renal): 1.93 µM
TGI (SN12C renal): 6.59 µM
GI50 (T-47D breast): 0.731 µM
TGI (T-47D breast): 5.17 µM
GI50 (ACHN renal): 0.113 µM
TGI (ACHN renal): 6.06 µM
GI50 (BT-549 breast): 1.81 µM
TGI (BT-549 breast): 4.54 µM
GI50 (SF-539 CNS): 1.83 µM
TGI (SF-539 CNS): 4.2 µM
GI50 (HT29 colon): 1.64 µM
TGI (HT29 colon): 3.73 µM
GI50 (UO-31 renal): 0.706 µM
TGI (UO-31 renal): 3.1 µM
GI50 (HL-60(TB) leukemia): 3.53 µM
TGI (HL-60(TB) leukemia): 43.3 µM
GI50 (UACC-62 melanoma): 1.84 µM
TGI (UACC-62 melanoma): 3.83 µM
GI50 (NCI-H522 lung): 1.04 µM
TGI (NCI-H522 lung): 3.13 µM

COC(=O)c1c(-c2cccs2)oc(-c2cccs2)c1C(=O)OC
GI50 (SN12C renal): 61.6 µM
TGI (SN12C renal): > 100 µM
GI50 (T-47D breast): 28.5 µM
TGI (T-47D breast): > 100 µM
GI50 (ACHN renal): > 70.2 µM
TGI (ACHN renal): > 100 µM
GI50 (BT-549 breast): 52 µM
TGI (BT-549 breast): > 100 µM
GI50 (SF-539 CNS): 84.4 µM
TGI (SF-539 CNS): > 100 µM
GI50 (HT29 colon): 60.2 µM
TGI (HT29 colon): > 100 µM
GI50 (UO-31 renal): 19.3 µM
TGI (UO-31 renal): 60.1 µM
GI50 (HL-60(TB) leukemia): 79.9 µM
TGI (HL-60(TB) leukemia): > 100 µM
GI50 (UACC-62 melanoma): 27.3 µM
TGI (UACC-62 melanoma): > 100 µM
GI50 (NCI-H522 lung): 25.5 µM
TGI (NCI-H522 lung): 69.7 µM

CCN(CC)CCCC(C)Nc1cc(-c2cccc(OC(F)(F)F)c2)nc2ccc(N3CCCC3)cc12 (stereo not given)
GI50 (SN12C renal): 0.124 µM
TGI (SN12C renal): 16.1 µM
GI50 (T-47D breast): 0.0542 µM
TGI (T-47D breast): > 100 µM
GI50 (ACHN renal): 0.0744 µM
TGI (ACHN renal): 39 µM
GI50 (BT-549 breast): 0.201 µM
TGI (BT-549 breast): 3.39 µM
GI50 (SF-539 CNS): 0.0382 µM
TGI (SF-539 CNS): 0.508 µM
GI50 (HT29 colon): 0.0394 µM
TGI (HT29 colon): 11.2 µM
GI50 (UO-31 renal): 0.0699 µM
TGI (UO-31 renal): 44.3 µM
GI50 (HL-60(TB) leukemia): 0.0528 µM
TGI (HL-60(TB) leukemia): 2.06 µM
GI50 (UACC-62 melanoma): 0.0484 µM
TGI (UACC-62 melanoma): 20.9 µM
GI50 (NCI-H522 lung): 0.0249 µM
TGI (NCI-H522 lung): 0.5 µM

O=C(O)/C(Cc1ccnc2ccccc12)=N\O
TGI (SN12C renal): > 100 µM
TGI (T-47D breast): > 100 µM
TGI (ACHN renal): > 100 µM
TGI (BT-549 breast): > 100 µM
TGI (SF-539 CNS): > 100 µM
TGI (HT29 colon): > 100 µM
TGI (UO-31 renal): > 100 µM
TGI (HL-60(TB) leukemia): > 100 µM
TGI (UACC-62 melanoma): > 100 µM
TGI (NCI-H522 lung): > 100 µM

CC(=O)OC12C=C(C)C(C(C)C1)C1C(=O)N(CCN3CCCCC3)C(=O)C12 (stereo not given)
GI50 (SN12C renal): > 50 µM
TGI (SN12C renal): > 50 µM
GI50 (T-47D breast): > 50 µM
TGI (T-47D breast): > 50 µM
GI50 (ACHN renal): > 50 µM
TGI (ACHN renal): > 50 µM
GI50 (BT-549 breast): > 50 µM
TGI (BT-549 breast): > 50 µM
GI50 (SF-539 CNS): > 50 µM
TGI (SF-539 CNS): > 50 µM
GI50 (HT29 colon): > 50 µM
TGI (HT29 colon): > 50 µM
GI50 (UO-31 renal): > 50 µM
TGI (UO-31 renal): > 50 µM
GI50 (HL-60(TB) leukemia): > 50 µM
TGI (HL-60(TB) leukemia): > 50 µM
GI50 (UACC-62 melanoma): > 50 µM
TGI (UACC-62 melanoma): > 50 µM
GI50 (NCI-H522 lung): > 50 µM
TGI (NCI-H522 lung): > 50 µM

CCOC(=O)C(Cc1ccc(N(CCCl)CCCl)cc1)NC(=O)C(Cc1ccccc1)NC=O (stereo not given)
TGI (SN12C renal): 0.294 µM
TGI (T-47D breast): 0.241 µM
TGI (ACHN renal): 0.105 µM
TGI (BT-549 breast): 0.756 µM
TGI (SF-539 CNS): 0.316 µM
TGI (HT29 colon): 0.289 µM
TGI (UO-31 renal): 0.273 µM
TGI (HL-60(TB) leukemia): 0.279 µM
TGI (UACC-62 melanoma): 0.254 µM
TGI (NCI-H522 lung): 0.167 µM
